The source of these data is patent US20230233489A1 (priority 2020, published 2023).

SMILES strings stand for the structures. Where “and” joins values, the source holds several entries; their conditions need not be identical. Equal entries are not always repeated. Where two headings read alike, the source gives them in different places.

For series [1], the system named is SARS-CoV-2. As to conditions: human, in vivo.
Another series concerns RAC1. As to conditions: IBD patients; cited from earlier work.
The subject of series [2] is Ebola virus. The following applies: read-out: 50% inhibitive concentration [IC50]; cited from earlier work.
A further series has as its system MERS-CoV. The following applies: read-out: 50% effective concentration [EC50]; cited from earlier work.
For the next series, the system named is SARS-CoV-1. The following applies: cited from earlier work.
For series [3], the system named is SARS-CoV-2. The following applies: cited from earlier work.
In series [4] the test system is Ebola virus. The following applies: mouse, in vivo; cited from earlier work.
The conditions of series [5]: cited from earlier work.
For series [6] the following is noted: in vivo; cited from earlier work.
Series [7] deals with SARS-CoV-2. The following applies: human, in vivo. This is another data set of the same source.

As to `COc1ccccc1OCCNCC(O)COc1cccc2[nH]c3ccccc3c12` (centres unmarked) [carvedilol], the “odds ratio of a positive laboratory test result for SARS-CoV-2” value with SARS-CoV-2 [1] was 0.74 and 0.90 and 0.73.

`S=c1nc[nH]c2nc[nH]c12` [Mercaptopurine, mercaptopurine]: the RAC1 expression result in the series on RAC1 is “lower RAC1 expression”.

As for `CN(C)CCOc1ccc(/C(=C(/CCCl)c2ccccc2)c2ccccc2)cc1` [toremifene], the IC50 in the series on Ebola virus [2] is about 1000 nM; in the series with SARS-CoV-2 [3] it was 3.58 µM. Moreover, the values for the EC50 with MERS-CoV and in the series with SARS-CoV-1 were 12.9 µM and 12 µM, respectively. The survival rate result in the series with Ebola virus [4] is given as “significantly improved survival rate”. Moreover, the “bound to plasma protein” value in series [5] was 99%. The bioavailability entry in [6] is recorded as “good”.

In the case of `COc1ccc2[nH]cc(CCNC(C)=O)c2c1` [melatonin], the “odds ratio of a positive laboratory test result for SARS-CoV-2” value in the series on SARS-CoV-2 [7] is 0.36 and 0.35 and 0.56 and 0.46. In addition, in the series on SARS-CoV-2 [1], the “odds ratio of SARS-CoV-2 positive test” value was 0.52 and 0.61 and 0.80.
